Experimental data: ChEMBL document CHEMBL5625174, “Are inhibitors of histone deacetylase 8 (HDAC8) effective in hematological cancers especially acute myeloid leukemia (AML) and acute lymphoblastic leukemia (ALL)?” (Eur J Med Chem, 2023)

Key:
Assay type in all cases: functional, cell-based
MOLT-4 = experiment: Cytotoxicity against human MOLT-4 cells assessed as reduction in cell viability
U-937 = experiment: Cytotoxicity against human U-937 cells assessed as reduction in cell viability
Jurkat E6.1 = experiment: Cytotoxicity against human Jurkat E6.1 cells assessed as reduction in cell viability

Compound	IC50 (MOLT-4) [µM]	IC50 (U-937) [µM]	IC50 (Jurkat E6.1) [µM]
O=C(O)CC[C@H](NC(=O)Cc1ccc(Cl)cc1)C(=O)NC1CCCCC1	< 35	> 35	< 35
O=C(O)CC[C@H](NC(=O)Cc1ccc(Br)cc1)C(=O)NC1CCCCC1	≤ 35	> 35	≤ 35
O=C(O)CC[C@H](NC(=O)Cc1ccc(-c2ccccc2)cc1)C(=O)NC1CCCCC1	< 35	> 35	< 35
CC(C)(C)NC(=O)[C@H](CCC(=O)O)NC(=O)Cc1ccc([N+](=O)[O-])cc1	< 35	> 35	> 35
CCCCCCNC(=O)[C@H](CCC(=O)O)NC(=O)Cc1ccccc1Cl	> 35	> 35	> 35
CCCNC(=O)[C@H](CCC(=O)O)NC(=O)Cc1ccc(Br)cc1	≤ 35	> 35	≤ 35
CC(C)NC(=O)[C@H](CCC(=O)O)NC(=O)Cc1ccc(Cl)cc1	≤ 35	≤ 35	≤ 35
CCCCCNC(=O)[C@H](CCC(=O)O)NC(=O)Cc1ccccc1Cl	> 35	> 35	≤ 35
CC(C)NC(=O)[C@H](CCC(=O)O)NC(=O)Cc1ccccc1F	> 35	> 35	> 35
CC(C)(C)NC(=O)[C@H](CCC(=O)O)NC(=O)Cc1ccccc1	≤ 35	≤ 35	≤ 35
Cc1ccccc1CC(=O)N[C@@H](CCC(=O)O)C(=O)Nc1ccccc1	> 35	> 35	> 35
CC(C)CNC(=O)[C@H](CCC(=O)O)NC(=O)Cc1ccccc1	> 35	> 35	> 35
CCCNC(=O)[C@H](CCC(=O)O)NC(=O)Cc1ccc(-c2ccccc2)cc1	< 35	> 35	< 35
O=C(O)CC[C@H](NC(=O)Cc1ccccc1Cl)C(=O)NCc1ccccc1	≤ 35	> 35	≤ 35
CCCCCNC(=O)[C@H](CCC(=O)O)NC(=O)Cc1ccccc1	≤ 35	> 35	≤ 35
CCCCNC(=O)[C@H](CCC(=O)O)NC(=O)Cc1ccccc1Cl	≤ 35	> 35	≤ 35
CCCCCCNC(=O)[C@H](CCC(=O)O)NC(=O)Cc1ccc2ccccc2c1	≤ 35	> 35	≤ 35
CC(C)CNC(=O)[C@H](CCC(=O)O)NC(=O)Cc1ccc(Br)cc1	> 35	> 35	> 35
CC(C)CNC(=O)[C@H](CCC(=O)O)NC(=O)Cc1ccccc1Br	< 35	> 35	< 35
CCCCCCNC(=O)[C@H](CCC(=O)O)NC(=O)Cc1ccccc1Br	< 35	< 35	< 35
CCCCNC(=O)[C@H](CCC(=O)O)NC(=O)Cc1ccccc1	≤ 35	> 35	> 35
CC(C)NC(=O)[C@H](CCC(=O)O)NC(=O)Cc1ccccc1Br	> 35	> 35	> 35
O=C(O)CC[C@H](NC(=O)Cc1ccccc1)C(=O)NC1CCCCC1	> 35	≤ 35	≤ 35
CCCCCNC(=O)[C@H](CCC(=O)O)NC(=O)Cc1ccc([N+](=O)[O-])cc1	< 35	> 35	< 35
CCCCCNC(=O)[C@H](CCC(=O)O)NC(=O)Cc1ccccc1F	< 35	> 35	< 35
CCCNC(=O)[C@H](CCC(=O)O)NC(=O)Cc1ccc(Cl)cc1	> 35	> 35	≤ 35

Compound	IC50 (MOLT-4) [µM]	IC50 (U-937) [µM]	IC50 (Jurkat E6.1) [µM]
COc1ccc(CC(=O)N[C@@H](CCC(=O)O)C(=O)NCc2ccccc2)cc1	≤ 35	> 35	≤ 35
CCCCCNC(=O)[C@H](CCC(=O)O)NC(=O)Cc1ccccc1Br	< 35	> 35	> 35
CC(C)CNC(=O)[C@H](CCC(=O)O)NC(=O)Cc1ccccc1Cl	≤ 35	> 35	≤ 35
CCCCCNC(=O)[C@H](CCC(=O)O)NC(=O)Cc1ccc(Br)cc1	≤ 35	> 35	≤ 35
CCCCNC(=O)[C@H](CCC(=O)O)NC(=O)Cc1ccccc1F	> 35	> 35	< 35
CCCCCCNC(=O)[C@H](CCC(=O)O)NC(=O)Cc1ccccc1F	< 35	> 35	< 35
CCCCNC(=O)[C@H](CCC(=O)O)NC(=O)Cc1ccc(Cl)cc1Cl	< 35	> 35	< 35
CC(C)(C)NC(=O)[C@H](CCC(=O)O)NC(=O)Cc1ccc(Cl)cc1	< 35	> 35	< 35
CC(C)NC(=O)[C@H](CCC(=O)O)NC(=O)Cc1ccc(-c2ccccc2)cc1	> 35	> 35	< 35
CCCCNC(=O)[C@H](CCC(=O)O)NC(=O)Cc1ccc([N+](=O)[O-])cc1	< 35	> 35	< 35
COc1ccc(CC(=O)N[C@@H](CCC(=O)O)C(=O)NC(C)(C)C)cc1	> 35	> 35	> 35
CCCNC(=O)[C@H](CCC(=O)O)NC(=O)Cc1ccccc1	≤ 35	> 35	≤ 35
CCCNC(=O)[C@H](CCC(=O)O)NC(=O)Cc1ccccc1F	> 35	> 35	> 35
O=C(O)CC[C@H](NC(=O)Cc1ccccc1)C(=O)NCc1ccccc1	> 35	> 35	> 35
CC(C)NC(=O)[C@H](CCC(=O)O)NC(=O)Cc1ccccc1	≤ 35	> 35	≤ 35
O=C(O)CC[C@H](NC(=O)Cc1ccccc1Br)C(=O)Nc1ccccc1	< 35	> 35	> 35
COc1ccc(CC(=O)N[C@@H](CCC(=O)O)C(=O)NCC(C)C)cc1	> 35	> 35	> 35
CCCCCNC(=O)[C@H](CCC(=O)O)NC(=O)Cc1ccc(Cl)cc1Cl	< 35	< 35	< 35
CCCCNC(=O)[C@H](CCC(=O)O)NC(=O)Cc1ccc(-c2ccccc2)cc1	< 35	> 35	< 35
O=C(O)CC[C@H](NC(=O)Cc1ccccc1)C(=O)Nc1ccccc1	≤ 35	≤ 35	≤ 35
CC(C)CNC(=O)[C@H](CCC(=O)O)NC(=O)Cc1ccccc1F	≤ 35	> 35	≤ 35
O=C(O)CC[C@H](NC(=O)Cc1ccc([N+](=O)[O-])cc1)C(=O)NCc1ccccc1	< 35	> 35	< 35
CC(C)CNC(=O)[C@H](CCC(=O)O)NC(=O)Cc1ccc(-c2ccccc2)cc1	> 35	> 35	> 35
O=C(O)CC[C@H](NC(=O)Cc1ccccc1F)C(=O)Nc1ccccc1	< 35	> 35	< 35
CCCCNC(=O)[C@H](CCC(=O)O)NC(=O)Cc1ccc(Br)cc1	≤ 35	> 35	≤ 35
